Measured values taken from patent US11613533B2, “Compounds useful for inhibiting RET kinase” (Eli Lilly and Company, priority 2020, dated 2023).

Experiments:
[1] = target: T1, wildtype RET kinase (N-terminal GST tagged recombinant human RET cytoplasmic domain, aa 658-end) (Homo sapiens, UniProt P07949); test: RET enzyme assay (HTRF KinEASE TK), wildtype; type: biochemical; conditions: 1 mM ATP, 60 min incubation at 22° C.
T1 construct: human RET cytoplasmic domain (aa 658-end); GST (N); purchased Eurofins 14-570M
T1 sequence (P07949 658-1114 limits assumed): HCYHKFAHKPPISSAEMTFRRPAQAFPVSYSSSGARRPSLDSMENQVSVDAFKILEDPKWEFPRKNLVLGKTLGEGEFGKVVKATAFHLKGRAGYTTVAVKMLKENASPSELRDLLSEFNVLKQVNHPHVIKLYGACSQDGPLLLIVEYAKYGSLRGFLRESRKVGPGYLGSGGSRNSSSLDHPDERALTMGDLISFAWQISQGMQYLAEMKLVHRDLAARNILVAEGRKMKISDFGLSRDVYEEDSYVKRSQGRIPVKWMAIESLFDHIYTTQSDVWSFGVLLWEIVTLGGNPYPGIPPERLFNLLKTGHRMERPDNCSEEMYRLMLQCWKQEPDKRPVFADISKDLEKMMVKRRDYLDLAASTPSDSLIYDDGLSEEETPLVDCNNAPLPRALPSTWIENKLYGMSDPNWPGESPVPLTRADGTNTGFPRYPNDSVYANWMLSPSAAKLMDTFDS
Procedure: Assay A: RET Enzyme Assay
Compounds of formulas I, II, or III are screened for their ability to inhibit wildtype, V804M, and G810S mutant RET kinase using CisBio's HTRF® KinEASE™TK assay technology. N-terminal GST tagged recombinant human RET cytoplasmic domain (aa 658-end) from Eurofins ([…]; Catalog No. 14-570M) or N-terminal GST tagged recombinant human V804M mutant RET cytoplasmic domain (aa 658-end) from Millipore (1.25 nM enzyme; Catalog No. 14-760) or N-Terminal GST-tagged recombinant human G810S (aa-658-end) (1.25 nM Enzyme; produced in insect cells) is incubated with 62.5 nM TK-substrate biotin (CisBio, part of Catalog No. 62TK0PEC) and 1 mM ATP along with test compound (0.4% final DMSO in the assay) in a 1× Cisbio enzymatic buffer consisting of […], 5 mM MgCl2, 0.04% BSA and 0.05% Tween20 in a volume of 10 μL. Compounds are typically prepared in a threefold serial dilution in DMSO and added to the assay to give the appropriate final concentration. After a 40-60 min (40 min for V804M, 60 min for WT and G810S) incubation at 22° C., the reaction is quenched by adding quench solution (10 μL) containing 7.8 nM Streptavidine-XL665 and 0.5×TK-ab-Cryptate in HTRF detection buffer (all from CisBio, part of Cat. No. 62TK0PEC). After a 60-80 min incubation (60 minutes for WT, 80 minutes for V804M and G810S) at 22° C., the extent of reaction is determined using a PHERastar plate reader via HTRF detection at excitation/emission 337/665 nm. Percent of inhibition is calculated with 0% inhibition referring to control conditions containing no compound (0.4% DMSO only) and 100% inhibition represented by conditions containing no enzyme. The % inhibition values are fit to a 4 parameter logistic curve, and the determined IC50 value is defined as the estimated concentration of inhibitor at the inflexion point of the fitted curve.

[2] = target: T2, KIF5B-RET mutant form V804M in HEK293 cells (Homo sapiens, UniProt P07949, V804M); test: RET cell assay (In-Cell Western, phospho-RET Y1062), V804M; type: cell-based; conditions: HEK293, doxycycline-induced KIF5B-RET V804M, 1 hr compound treatment; read-out: EC50, inhibition of intracellular autophosphorylation of RET at tyrosine 1062, V804M cells
T2 construct: expressed in transfected cells; host or cells: HEK293; the other entry of the earlier key: KIF5B (P33176, Kinesin-1 heavy chain)
T2 sequence (P07949 713-1063 V804M limits assumed): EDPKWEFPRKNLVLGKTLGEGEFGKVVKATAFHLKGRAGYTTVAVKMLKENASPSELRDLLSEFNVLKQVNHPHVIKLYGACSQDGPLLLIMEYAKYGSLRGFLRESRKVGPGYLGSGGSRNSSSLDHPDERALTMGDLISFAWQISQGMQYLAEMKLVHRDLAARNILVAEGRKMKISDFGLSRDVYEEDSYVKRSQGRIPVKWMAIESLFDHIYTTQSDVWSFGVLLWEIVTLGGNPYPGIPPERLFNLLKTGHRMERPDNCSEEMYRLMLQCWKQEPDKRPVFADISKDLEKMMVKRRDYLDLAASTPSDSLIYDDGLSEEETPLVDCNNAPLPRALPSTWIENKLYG
Procedure: Compounds of formulas (I), (II), and (III) are screened for their ability to inhibit the intracellular autophosphorylation of RET at tyrosine 1062 as detected by In-Cell Western. HEK293 cells containing a doxycycline-inducible plasmid for inducible expression of KIF5B-RET WT and RET mutant forms V804M and G810S are seeded at 25,000 cells/well into black poly-D-lysine pre-coated 384-well plates (Corning, Catalog No. 356697). Expression of KIF5B-RET is induced with doxycycline at 1 μg/mL and cells are incubated at 37° C. overnight. Compounds are prepared in a threefold serial dilution in DMSO before further diluting 1:100 in media prior to the addition to the cells (0.1% final DMSO concentration). Compound treatment is performed for 1 hr at 37° C. followed by fixation of cells with 4% formaldehyde for 20 min at RT and cell permeabilisation with ice-cold MeOH for 10 min at RT. Cells are incubated with Intercept® blocking buffer (Li—COR, Catalogue No. 927-70010) for 1 hr at RT. Incubation with primary antibodies against human phospho-RET (Y1062) (R&D, Catalogue No. AF5009, 1/250 dilution) and human glyceraldehyde-3-phosphate dehydrogenase (clone 6C5, Merck, Catalog No. MAB374, 1/1000 dilution) are performed overnight at 4° C. Incubation with secondary antibodies IRDye® 800CW goat anti-rabbit IgG (Li—COR, Catalogue No. 926-32211, 1/1000 dilution) and IRDye® 680CW goat anti-mouse IgG (Li—COR, Catalogue No. 926-68070, 1/1000 dilution) are performed for 1 hr at RT. All antibody dilutions are done in Intercept® blocking buffer containing 0.05% Tween20. After washing cells with PBS-T (Cell Signaling technology, Catalogue No. 9809), the images are acquired on a Li—COR Odyssey LCx at 700 and 800 nm. Percent of DMSO control is calculated with 100% signal referring to control conditions containing no compound (0.4% DMSO only) and 0% signal represented by conditions containing control compound. The % of DMSO control values are fit to a 4 parameter logistic curve, and the determined EC50 value is defined as the estimated concentration of inhibitor at the inflexion point of the fitted curve.

Row | IC50 [1] | EC50 [2] | Compound
1 | < 100 nM | < 100 nM | CC(C(=O)Nc1cc(C(C)(C)C(F)(F)F)on1)c1ccc(-c2nn(C(C)C)c(N)c2C(N)=O)cc1 (single isomer, unassigned; isomer 1) [Example 81, 5-Amino-1-isopropyl-3-[4-(1-[[5-(1,1,1-trifluoro-2-methylpropan-2-yl)-1,2-oxazol-3-yl]carbamoyl]ethyl)phenyl]pyrazole-4-carboxamide, Isomer 1]
2 | < 100 nM | < 100 nM | CC(C(=O)Nc1cc(C(C)(C)C(F)(F)F)on1)c1ccc(-c2nn(C(C)C)c(N)c2C(N)=O)nc1 (single isomer, unassigned; isomer 2) [Example 64, 5-Amino-1-isopropyl-3-[5-(1-[[5-(1,1,1-trifluoro-yl)-1,2-oxazol-3-2-methylpropan-2-yl]carbamoyl]ethyl)pyridin-2-yl]pyrazole-4-carboxamide, Isomer 2]
3 | < 100 nM | < 100 nM | CC(C(=O)Nc1cc(C(C)(C)C(C)(F)F)on1)c1ccc(-c2nn(C(C)C)c(N)c2C(N)=O)nc1 (single isomer, unassigned; isomer 2) [Example 70, 5-Amino-3-[5-(1-[[5-(3,3-difluoro-2-methylbutan-2-yl)-1,2-oxazol-3-yl]carbamoyl]ethyl)pyridin-2-yl]-1-isopropylpyrazole-4-carboxamide, Isomer 2]
4 | < 100 nM | < 100 nM | CC(C(=O)Nc1cc(C(C)(C)C(C)(F)F)on1)c1ccc(-c2nn(C(C)C)c(N)c2C(N)=O)cc1 (single isomer, unassigned; isomer 2) [Example 76, 5-Amino-3-[4-(1-[[5-(3,3-difluoro-2-methylbutan-2-yl)-1,2-oxazol-3-yl]carbamoyl]ethyl)phenyl]-1-isopropylpyrazole-4-carboxamide, Isomer 2]

The remaining lines, values behind:

Row | Compound | IC50 [1] | EC50 [2]
5 | CC(C(=O)Nc1cc(CC(C)(C)C)no1)c1ccc(-c2nn(C(C)C)c(N)c2C(N)=O)cc1 (single isomer, unassigned; isomer 1) [Example 1, 5-Amino-3-[4-(1-[[3-(2,2-dimethylpropyl)-1,2-oxazol-5-yl]carbamoyl]ethyl)phenyl]-1-isopropylpyrazole-4-carboxamide, Isomer 1] | < 100 nM | < 100 nM
6 | CC(C(=O)Nc1cc(C(C)(C)CC(F)(F)F)on1)c1ccc(-c2nn(C(C)C)c(N)c2C(N)=O)nc1 (single isomer, unassigned; isomer 2) [Example 68, 5-Amino-1-isopropyl-3-(5-(1-oxo-1-((5-(4,4,4-trifluoro-2-methylbutan-2-yl)isoxazol-3-yl)amino)propan-2-yl)pyridin-2-yl)-1H-pyrazole-4-carboxamide, Isomer 2] | < 100 nM | < 100 nM
7 | CC(C(=O)Nc1cc(C(C)(C)C(F)(F)F)no1)c1ccc(-c2nn(C(C)C)c(N)c2C(N)=O)cn1 (single isomer, unassigned; isomer 2) [Example 90, 5-Amino-1-isopropyl-3-[6-[1-methyl-2-oxo-2-[[3-(2,2,2-trifluoro-1,1-dimethyl-ethyl)isoxazol-5-yl]amino]ethyl]-3-pyridyl]pyrazole-4-carboxamide, Isomer 2] | < 100 nM | < 100 nM
8 | CC(C(=O)Nc1cc(C(C)(C)C)sn1)c1ccc(-c2nn(C(C)C)c(N)c2C(N)=O)cc1 (single isomer, unassigned; isomer 2) [Example 80, 5-Amino-3-(4-[1-[(5-tert-butyl-1,2-thiazol-3-yl)carbamoyl]ethyl]phenyl)-1-isopropylpyrazole-4-carboxamide, isomer 2] | < 100 nM | < 100 nM
9 | CCC(C)(C)c1cc(NC(=O)C(C)c2ccc(-c3nn(C(C)C)c(N)c3C(N)=O)cn2)on1 (single isomer, unassigned; isomer 2) [Example 84, 5-Amino-1-isopropyl-3-[6-[2-[[3-(1,1-dimethylpropyl)isoxazol-5-yl]amino]-1-methyl-2-oxo-ethyl]-3-pyridyl]pyrazole-4-carboxamide, Isomer 2] | < 100 nM | < 100 nM
